pIC50: −log10 of the molar value. Values joined by “and” are separate entries in the source; they are usually repeats but may differ in a detail not shown here. Equal values may be shown once.
Test system: 786-0 complex spheroid viability
Test: Anticancer human tumor 786-0 cell line growth inhibition;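 note: spheroids exposed to agents for seven days before readout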
Conditions: for viability, T/C: stronger effect = lower value
Outline: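 Complex spheroids of tumor cells with HUVEC and human MSCs, exposed to iadademstat combined with other agents. Each agent tested in half-log steps from near clinical Cmax (else 10 microM top), DMSO ≤0.25%.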

[1] = curve of first compound, second compound 0.1 µM
[2] = curve of first compound, second compound 0.316 µM
[3] = curve of first compound, second compound 1 µM
[4] = curve of first compound, second compound 3.16 µM
[5] = curve of first compound, second compound 10 µM
[6] = second compound 0.1 µM, first compound 0.0316 µM
[7] = second compound 0.1 µM, first compound 0.1 µM
[8] = second compound 0.1 µM, first compound 0.316 µM
[9] = second compound 0.1 µM, first compound 1 µM
[10] = second compound 0.1 µM, first compound 3.16 µM
[11] = second compound 0.1 µM, first compound 10 µM
[12] = second compound 0.316 µM, first compound 0.0316 µM
[13] = second compound 0.316 µM, first compound 0.1 µM
[14] = second compound 0.316 µM, first compound 0.316 µM
[15] = second compound 0.316 µM, first compound 1 µM
[16] = second compound 0.316 µM, first compound 3.16 µM
[17] = second compound 0.316 µM, first compound 10 µM
[18] = second compound 1 µM, first compound 0.0316 µM
[19] = second compound 1 µM, first compound 0.1 µM
[20] = second compound 1 µM, first compound 0.316 µM
[21] = second compound 1 µM, first compound 1 µM
[22] = second compound 1 µM, first compound 3.16 µM
[23] = second compound 1 µM, first compound 10 µM
[24] = second compound 3.16 µM, first compound 0.0316 µM
[25] = second compound 3.16 µM, first compound 0.1 µM
[26] = second compound 3.16 µM, first compound 0.316 µM
[27] = second compound 3.16 µM, first compound 1 µM
[28] = second compound 3.16 µM, first compound 3.16 µM
[29] = second compound 3.16 µM, first compound 10 µM
[30] = second compound 10 µM, first compound 0.0316 µM
[31] = second compound 10 µM, first compound 0.1 µM
[32] = second compound 10 µM, first compound 0.316 µM
[33] = second compound 10 µM, first compound 1 µM
[34] = second compound 10 µM, first compound 3.16 µM
[35] = second compound 10 µM, first compound 10 µM
[36] = second compound 0.1 µM, first compound 0.00316 µM
[37] = second compound 0.1 µM, first compound 0.01 µM
[38] = second compound 0.316 µM, first compound 0.00316 µM
[39] = second compound 0.316 µM, first compound 0.01 µM
[40] = second compound 1 µM, first compound 0.00316 µM
[41] = second compound 1 µM, first compound 0.01 µM
[42] = second compound 3.16 µM, first compound 0.00316 µM
[43] = second compound 3.16 µM, first compound 0.01 µM
[44] = second compound 10 µM, first compound 0.00316 µM
[45] = second compound 10 µM, first compound 0.01 µM

| Structure (SMILES) | pIC50 [1] | pIC50 [2] | pIC50 [3] | pIC50 [4] | pIC50 [5] | viability, T/C [6] [%] | viability, T/C [7] [%] | viability, T/C [8] [%] | viability, T/C [9] [%] | viability, T/C [12] [%] | viability, T/C [13] [%] | viability, T/C [14] [%] | viability, T/C [15] [%] | viability, T/C [18] [%] | viability, T/C [19] [%] | viability, T/C [20] [%] | viability, T/C [24] [%] | viability, T/C [25] [%] | viability, T/C [30] [%] | viability, T/C [31] [%] | other results |
| --- | --- | --- | --- | --- | --- | --- | --- | --- | --- | --- | --- | --- | --- | --- | --- | --- | --- | --- | --- | --- | --- |
| CC(C)c1c(-c2ccccc2)nc2c(C#N)c[nH]n2c1=O + NC1CCC(NC2CC2c2ccccc2)CC1 | < 5.00 | < 5.00 | < 5.00 | < 5.00 | < 5.00 | 110 | 111 | 119 | 118 | 121 | 118 | 118 | 116 | 114 | 113 | 113 | 111 | 107 | 92.7 | 95.3 | viability, T/C [10]: 116%; viability, T/C [11]: 112%; viability, T/C [16]: 115%; viability, T/C [17]: 116%; viability, T/C [21]: 125%; viability, T/C [22]: 112%; viability, T/C [23]: 113%; viability, T/C [26]: 108%; viability, T/C [27]: 100%; viability, T/C [28]: 107%; viability, T/C [29]: 103%; viability, T/C [32]: 95.2%; viability, T/C [33]: 98.8%; viability, T/C [34]: 88.1%; viability, T/C [35]: 84.9% |
| CC1COCCN1c1cc(-c2ccnn2C)c2ccnc(-c3ccn[nH]3)c2n1 (configuration not stated) + NC1CCC(NC2CC2c2ccccc2)CC1 | 7.43 | 7.43 | 7.51 | 7.65 | 7.91 | 55.5 | 16.3 | 8.21 | 10.2 | 55.1 | 16.2 | 7.09 | 12.1 | 48.3 | 15.1 | 5.97 | 35.9 | 12.4 | 19.2 | 5.5 | viability, T/C [36]: 112%; viability, T/C [37]: 110%; viability, T/C [38]: 123%; viability, T/C [39]: 114%; viability, T/C [40]: 116%; viability, T/C [41]: 104%; viability, T/C [21]: 11.4%; viability, T/C [42]: 107%; viability, T/C [43]: 83.1%; viability, T/C [26]: 5.34%; viability, T/C [27]: 9.25%; viability, T/C [44]: 77.4%; viability, T/C [45]: 57%; viability, T/C [32]: 3.62%; viability, T/C [33]: 12% |
| Cn1ncnc1C1c2n[nH]c(=O)c3cc(F)cc(c23)NC1c1ccc(F)cc1 (configuration not stated) |  |  |  |  |  |  |  |  |  |  |  |  |  |  |  |  |  |  |  |  | viability, T/C (compound 0.000316 µM): 102% and 101%; viability, T/C (compound 0.001 µM): 108%; viability, T/C (compound 0.00316 µM): 98.2% and 97.5%; viability, T/C (compound 0.01 µM): 98.3% and 97.5%; viability, T/C (compound 0.0316 µM): 100% and 92.3%; viability, T/C (compound 0.1 µM): 97.7% and 89.8%; pIC50 (curve of compound): < 7.00 |
| Cn1ncnc1C1c2n[nH]c(=O)c3cc(F)cc(c23)NC1c1ccc(F)cc1 (configuration not stated) + NC1CC1c1ccc(-c2cccc(O)c2)cc1 | < 7.00 | < 7.00 | < 7.00 | < 7.00 | < 7.00 | 92.4 | 89.3 |  |  | 94.3 | 95.9 |  |  | 81.5 | 85 |  | 85.2 | 76.4 | 79.8 | 74.5 | viability, T/C (second compound 0.1 µM, first compound 0.000316 µM): 95.4%; viability, T/C (second compound 0.1 µM, first compound 0.001 µM): 94.4%; viability, T/C [36]: 95%; viability, T/C [37]: 91.9%; viability, T/C (second compound 0.316 µM, first compound 0.000316 µM): 102%; viability, T/C (second compound 0.316 µM, first compound 0.001 µM): 102%; viability, T/C [38]: 101%; viability, T/C [39]: 91%; viability, T/C (second compound 1 µM, first compound 0.000316 µM): 93.3%; viability, T/C (second compound 1 µM, first compound 0.001 µM): 94.5%; viability, T/C [40]: 90.6%; viability, T/C [41]: 86.9%; viability, T/C (second compound 3.16 µM, first compound 0.000316 µM): 88.4%; viability, T/C (second compound 3.16 µM, first compound 0.001 µM): 92.1%; viability, T/C [42]: 90.9%; viability, T/C [43]: 87.8%; viability, T/C (second compound 10 µM, first compound 0.000316 µM): 80.7%; viability, T/C (second compound 10 µM, first compound 0.001 µM): 87%; viability, T/C [44]: 84.3%; viability, T/C [45]: 83.2% |
| O=C(c1cc(Cc2n[nH]c(=O)c3ccccc23)ccc1F)N1CCN(C(=O)C2CC2)CC1 + NC1CCC(NC2CC2c2ccccc2)CC1 | < 5.00 | < 5.00 | < 5.00 | < 5.00 | 5.09 | 114 | 119 | 111 | 101 | 119 | 112 | 115 | 104 | 115 | 113 | 104 | 99.3 | 99.3 | 79.8 | 82.7 | viability, T/C [10]: 83.1%; viability, T/C [11]: 71.4%; viability, T/C [16]: 87.1%; viability, T/C [17]: 72.6%; viability, T/C [21]: 92.9%; viability, T/C [22]: 76.6%; viability, T/C [23]: 62.3%; viability, T/C [26]: 100%; viability, T/C [27]: 91.8%; viability, T/C [28]: 79.3%; viability, T/C [29]: 57.3%; viability, T/C [32]: 88.4%; viability, T/C [33]: 81.7%; viability, T/C [34]: 67.2%; viability, T/C [35]: 46.3% |

Source: PubChem BioAssay AID1918944 (Molecular Pharmacology Branch, DTP, NCI, 2023)
